Data published in patent US8436159B2, “Glyphosate resistant class I 5-endolpyruvylshikimate-3-phosphate synthase (EPSPS)” (Monsanto Technology LLC, priority 2003, dated 2013).

Columns and labels:
[1] = system: E. coli EPSPS variant, alanine for the glycine at position 96 (G96A); details: glyphosate-resistant isolate; read-out: apparent Ki for glyphosate; cited from earlier work
[2] = biological target: T1, maize (Zea mays) class I EPSPS variant TIPT (T102I, P106T), pMON58452, ZmTIPT SEQ ID NO:38 (Zea mays, UniProt O24566, P106T/T102I); assay: EPSPS steady-state kinetics, TIPT variant; type: biochemical
T1 construct: pMON58452
T1 sequence (O24566 1-444 T102I/P106T): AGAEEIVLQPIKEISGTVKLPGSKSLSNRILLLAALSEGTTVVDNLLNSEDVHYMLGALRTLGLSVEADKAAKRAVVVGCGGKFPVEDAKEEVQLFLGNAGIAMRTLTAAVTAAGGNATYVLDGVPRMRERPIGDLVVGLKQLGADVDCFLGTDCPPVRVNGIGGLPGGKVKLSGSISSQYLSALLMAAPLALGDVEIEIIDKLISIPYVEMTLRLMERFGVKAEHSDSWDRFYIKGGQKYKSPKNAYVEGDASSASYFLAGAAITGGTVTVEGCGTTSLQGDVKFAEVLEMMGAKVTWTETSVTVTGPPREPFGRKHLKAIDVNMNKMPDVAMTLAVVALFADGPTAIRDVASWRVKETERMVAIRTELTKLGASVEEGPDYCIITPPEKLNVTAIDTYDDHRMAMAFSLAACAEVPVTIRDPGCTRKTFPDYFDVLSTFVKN
Excerpt: The double variants of the present invention were made using pMON58452 (FIG. 5) as the template. This pMON58452 EPSPS gene template contains the maize EPSPS double variant T102I, P106T (TIPT) that was constructed by mutagenesis of pMON70467 with the mutagenesis primers mEmut-9-U and mEmut-10-L. The various mutagenesis primer sequences were designed and then were synthesized by Invitrogen Corp., Custom Primers and used in combination in a PCR to create the variant EPSPS coding sequences. The PCR was set up in a 50 μl reaction in the following manner: dH2O 38 μl; 2 mM dNTP 1 μL; 10× buffer 5 μL; pMON58452 1 μL (10 ng); primer-U 2 μL; primer-L 2 μL; pfu Turbo enzyme 1 μL. PCR was carried out on a MJ Research PTC-200 thermal cycler using the following program: Step 1—94° C. for 30 seconds; Step 2—94° C. for 30 seconds; Step 3—55° C. for 1 minute; Step 4—68° C. for 14 minute; Step 5—go to step 2, 16 times; Step 6—End. At the end of the PCR, 1 μl of the restriction enzyme DpnI was added to each 50 μl of PCR reaction and the mixture was incubated at 37° C. for 1 hour. […]

O=C(O)CNCP(=O)(O)O [glyphosate, N-phosphonomethylglycine]
Ki [1]: 4000 µM | Ki [2]: 101 ± 12.7 µM
